Test results: patent US20210246121A1, “SOLID FORMS OF APOL1 INHIBITOR AND METHODS OF USING SAME” (Vertex Pharmaceuticals Incorporated, priority 2020, published 2021)

Test: relative thermodynamic stability of solid forms of Compound I as a function of water activity
Type: physicochemical
Conditions: from about 0 to 0.5 or 0.6 water activity at room temperature

Structure (SMILES): O=C(CCc1c(-c2ccc(F)cc2)[nH]c2ccccc12)N[C@@H]1C(=O)NC[C@H]1O [Compound 1 Form B]
- thermodynamic stability relative to other forms of the compound: most thermodynamically stable form
